What was measured:
[1] = Oral bioavailability in Sprague-Dawley rat at 0.3 mg/kg; assay type: ADME, organism-based; conditions: in vivo
[2] = Oral bioavailability in Sprague-Dawley rat at 3 mg/kg; assay type: ADME, organism-based; conditions: in vivo
[3] = Oral bioavailability in Sprague-Dawley rat at 30 mg/kg; assay type: ADME, organism-based; conditions: in vivo
[4] = Clearance in Sprague-Dawley rat at 0.3 mg/kg, po; assay type: ADME, organism-based; set-up: dose 0.3 mg/kg, route oral; conditions: in vivo
Rattus norvegicus = assay: Volume of distribution at steady state in Sprague-Dawley rat at 0.3 mg/kg, po; assay type: ADME, organism-based; set-up: dose 0.3 mg/kg, route oral; conditions: in vivo
[5] = Half life in Sprague-Dawley rat at 0.3 mg/kg, po; assay type: ADME, organism-based; set-up: dose 0.3 mg/kg, route oral; conditions: in vivo
[6] = Apparent permeability of the compound; assay type: ADME; conditions: not told
[7] = Metabolic stability in rat liver microsomes assessed as compound remaining at 1 uM after 30 mins in presence of NADPH; assay type: ADME, Microsome; conditions: read-out: Stability
[8] = Metabolic stability in human liver microsomes assessed as compound remaining at 1 uM after 30 mins in presence of NADPH; assay type: ADME, Microsome; conditions: read-out: Stability
[9] = Metabolic stability in Sprague-Dawley rat hepatocytes assessed as compound remaining at 10 uM after 2 hrs; assay type: ADME, cell-based, Hepatocyte; conditions: read-out: Stability
in vitro = conditions: human, liver microsomes
[10] = Metabolic stability in dog liver microsomes assessed as compound remaining at 1 uM after 30 mins in presence of NADPH; assay type: ADME, Canis lupus familiaris, Microsome; conditions: read-out: Stability
[11] = Metabolic stability in rhesus monkey liver microsomes assessed as compound remaining at 1 uM after 30 mins in presence of NADPH; assay type: ADME, Macaca mulatta, Microsome; conditions: read-out: Stability
[12] = AUC in Sprague-Dawley rat at 3 mg/kg, po; assay type: ADME, organism-based; set-up: dose 3 mg/kg, route oral; conditions: plasma
[13] = Clearance in Sprague-Dawley rat at 3 mg/kg, po and 0.5 mg/kg, iv; assay type: ADME, organism-based; conditions: in vivo
[14] = Half life in Sprague-Dawley rat at 3 mg/kg, po and 0.5 mg/kg, iv; assay type: ADME, organism-based; conditions: in vivo
[15] = Volume of distribution at steady state in Sprague-Dawley rat at 3 mg/kg, po and 0.5 mg/kg, iv; assay type: ADME, organism-based; conditions: in vivo, read-out: Vdss
[16] = Oral bioavailability in Beagle dog at 3 mg/kg; assay type: ADME, organism-based, Canis lupus familiaris; conditions: in vivo
[17] = AUC in Beagle dog at 3 mg/kg, po; assay type: ADME, organism-based, Canis lupus familiaris; set-up: dose 3 mg/kg, route oral; conditions: plasma
[18] = Clearance in Beagle dog at 3 mg/kg, po and 1 mg/kg, iv; assay type: ADME, organism-based, Canis lupus familiaris; conditions: in vivo
[19] = Half life in Beagle dog at 3 mg/kg, po and 1 mg/kg, iv; assay type: ADME, organism-based, Canis lupus familiaris; conditions: in vivo
[20] = Volume of distribution at steady state in Beagle dog at 3 mg/kg, po and 1 mg/kg, iv; assay type: ADME, organism-based, Canis lupus familiaris; conditions: in vivo, read-out: Vdss
[21] = Oral bioavailability in rhesus monkey at 3 mg/kg; assay type: ADME, organism-based, Macaca mulatta; conditions: in vivo
[22] = AUC in rhesus monkey at 3 mg/kg, po; assay type: ADME, organism-based, Macaca mulatta; set-up: dose 3 mg/kg, route oral; conditions: plasma
[23] = Clearance in rhesus monkey at 3 mg/kg, po and 1 mg/kg, iv; assay type: ADME, organism-based, Macaca mulatta; conditions: in vivo
[24] = Half life in rhesus monkey at 3 mg/kg, po and 1 mg/kg, iv; assay type: ADME, organism-based, Macaca mulatta; conditions: in vivo
[25] = Volume of distribution at steady state in rhesus monkey at 3 mg/kg, po and 1 mg/kg, iv; assay type: ADME, organism-based, Macaca mulatta; conditions: in vivo, read-out: Vdss

Which bioavailability [1] does the source give for `COCCCc1cc(CN(C(=O)[C@H]2CNCC[C@]2(O)c2ccc(F)c(F)c2)C2CC2)cc(OCCOC)c1` here?
Its bioavailability is 17%.

And the bioavailability [2]?
Its bioavailability is 29%.

What about the bioavailability [3] of the same compound?
Its bioavailability is 18%.

And the CL/F [4]?
The CL/F was 2.16 L/h/kg.

What about the Vdss (Rattus norvegicus) of the same compound?
Its Vdss is 5 L/kg.

What about the half-life [5] of the same compound?
The half-life was 1.5 h.

And the Papp [6]?
Its Papp is 215 nm/s.

What does the source list for `Cc1cccc(CN(C(=O)[C@H]2CNCC[C@@]23OCc2cc(F)c(F)cc23)C2CC2)c1C`?
remaining at 0.5 h, 1 µM [7]: 0%; remaining at 0.5 h, 1 µM [8]: 1%; remaining at 2 h, 10 µM [9]: 8%

For `O=C([C@H]1CNCC[C@@]12OCc1cc(F)c(F)cc12)N(Cc1cccc(C(F)(F)F)c1Cl)C1CC1`, which remaining at 1 h, 10 µM (in vitro) is on record?
Its remaining at 1 h, 10 µM is 50%.

For `COCCCc1cc(CCCN2CCOCC2)c(Cl)c(CN(C(=O)[C@H]2CNCC[C@@]23OCc2cc(F)c(F)cc23)C2CC2)c1`, which remaining at 0.5 h, 1 µM [7] is on record?
Its remaining at 0.5 h, 1 µM is 53%.

What about the remaining at 0.5 h, 1 µM [8] of the same compound?
The remaining at 0.5 h, 1 µM was 51%.

And the remaining at 0.5 h, 1 µM [10]?
The remaining at 0.5 h, 1 µM was 43%.

What about the remaining at 0.5 h, 1 µM [11] of the same compound?
The remaining at 0.5 h, 1 µM was 10%.

Which bioavailability [2] does the source give for `COCCCc1cc(CCCN2CCOCC2)c(Cl)c(CN(C(=O)[C@H]2CNCC[C@@]23OCc2cc(F)c(F)cc23)C2CC2)c1.Cl.Cl.Cl` here?
Its bioavailability is 23%.

What about the AUC [12] of the same compound?
Its AUC is 370 nM·h.

What about the clearance [13] of the same compound?
Its clearance is 2.82 L/h/kg.

And the half-life [14]?
The half-life was 5.3 h.

And the Vd [15]?
The Vd was 24 L/kg.

And the bioavailability [16]?
The bioavailability was 1%.

And the AUC [17]?
Its AUC is 10 nM·h.

And the clearance [18]?
Its clearance is 4.38 L/h/kg.

And the half-life [19]?
The half-life was 10 h.

What about the Vd [20] of the same compound?
The Vd was 73 L/kg.

What about the bioavailability [21] of the same compound?
The bioavailability was 1%.

What about the AUC [22] of the same compound?
The AUC was 10 nM·h.

And the clearance [23]?
Its clearance is 3.96 L/h/kg.

What about the half-life [24] of the same compound?
The half-life was 5 h.

What about the Vd [25] of the same compound?
The Vd was 45 L/kg.

Reference: ChEMBL document CHEMBL1921748, “Renin inhibitors for the treatment of hypertension: design and optimization of a novel series of spirocyclic piperidines” (Bioorg Med Chem Lett, 2011)
